The target in assay [1] is T1, human Nav1.7 (Homo sapiens, UniProt Q15858).
T1 construct: expressed in transfected cells; host or cells: HEK293
In words: Nav 1.7 In Vitro PatchXpress (PX) Assay. It counts as cell-based. To be noted: HEK 293 cells stably transfected with human Nav1.7; PatchXpress whole cell voltage clamp; partially inactivated state (holding potential yielding 20 to 50% inactivation); read-out: hNav1.7 PX IC50. Summed up: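 Percent inhibition of peak sodium current taken after 3 min exposure to one compound concentration, 3–5 cells each, with IC50 curve fits. Partially inactivated channels (20–50% inactivation at holding potential) in Nav1.7-HEK 293 cells, activated by 20 ms steps to −10 mV every 10 s.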

Assay [2] concerns the target T1, human Nav1.7. In words: Nav 1.7 IWB In Vitro Assay (IonWorks Barracuda). The note with it: HEK293 cells stably transfected with human Nav 1.7; IonWorks Barracuda population patch-clamp; cells clamped to −20 mV for 4 minutes with compound; 26th pulse; read-out: hNav1.7 IWB IC50. The class given is cell-based. Summed up: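 IC50 derived from concentration-response of percent block of the 26th-pulse peak inward current, compound vs none. Protocol: stable human Nav 1.7 HEK293 cells on automated population patch clamp, held at −110 mV, 5 Hz train of 150 ms steps to −20 mV, 4 min compound exposure depolarized at −20 mV, 3 s repolarization, train repeated.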
In general terms: Patch clamp records ionic current or voltage across a cell membrane.

T1 sequence (Q15858 whole entry): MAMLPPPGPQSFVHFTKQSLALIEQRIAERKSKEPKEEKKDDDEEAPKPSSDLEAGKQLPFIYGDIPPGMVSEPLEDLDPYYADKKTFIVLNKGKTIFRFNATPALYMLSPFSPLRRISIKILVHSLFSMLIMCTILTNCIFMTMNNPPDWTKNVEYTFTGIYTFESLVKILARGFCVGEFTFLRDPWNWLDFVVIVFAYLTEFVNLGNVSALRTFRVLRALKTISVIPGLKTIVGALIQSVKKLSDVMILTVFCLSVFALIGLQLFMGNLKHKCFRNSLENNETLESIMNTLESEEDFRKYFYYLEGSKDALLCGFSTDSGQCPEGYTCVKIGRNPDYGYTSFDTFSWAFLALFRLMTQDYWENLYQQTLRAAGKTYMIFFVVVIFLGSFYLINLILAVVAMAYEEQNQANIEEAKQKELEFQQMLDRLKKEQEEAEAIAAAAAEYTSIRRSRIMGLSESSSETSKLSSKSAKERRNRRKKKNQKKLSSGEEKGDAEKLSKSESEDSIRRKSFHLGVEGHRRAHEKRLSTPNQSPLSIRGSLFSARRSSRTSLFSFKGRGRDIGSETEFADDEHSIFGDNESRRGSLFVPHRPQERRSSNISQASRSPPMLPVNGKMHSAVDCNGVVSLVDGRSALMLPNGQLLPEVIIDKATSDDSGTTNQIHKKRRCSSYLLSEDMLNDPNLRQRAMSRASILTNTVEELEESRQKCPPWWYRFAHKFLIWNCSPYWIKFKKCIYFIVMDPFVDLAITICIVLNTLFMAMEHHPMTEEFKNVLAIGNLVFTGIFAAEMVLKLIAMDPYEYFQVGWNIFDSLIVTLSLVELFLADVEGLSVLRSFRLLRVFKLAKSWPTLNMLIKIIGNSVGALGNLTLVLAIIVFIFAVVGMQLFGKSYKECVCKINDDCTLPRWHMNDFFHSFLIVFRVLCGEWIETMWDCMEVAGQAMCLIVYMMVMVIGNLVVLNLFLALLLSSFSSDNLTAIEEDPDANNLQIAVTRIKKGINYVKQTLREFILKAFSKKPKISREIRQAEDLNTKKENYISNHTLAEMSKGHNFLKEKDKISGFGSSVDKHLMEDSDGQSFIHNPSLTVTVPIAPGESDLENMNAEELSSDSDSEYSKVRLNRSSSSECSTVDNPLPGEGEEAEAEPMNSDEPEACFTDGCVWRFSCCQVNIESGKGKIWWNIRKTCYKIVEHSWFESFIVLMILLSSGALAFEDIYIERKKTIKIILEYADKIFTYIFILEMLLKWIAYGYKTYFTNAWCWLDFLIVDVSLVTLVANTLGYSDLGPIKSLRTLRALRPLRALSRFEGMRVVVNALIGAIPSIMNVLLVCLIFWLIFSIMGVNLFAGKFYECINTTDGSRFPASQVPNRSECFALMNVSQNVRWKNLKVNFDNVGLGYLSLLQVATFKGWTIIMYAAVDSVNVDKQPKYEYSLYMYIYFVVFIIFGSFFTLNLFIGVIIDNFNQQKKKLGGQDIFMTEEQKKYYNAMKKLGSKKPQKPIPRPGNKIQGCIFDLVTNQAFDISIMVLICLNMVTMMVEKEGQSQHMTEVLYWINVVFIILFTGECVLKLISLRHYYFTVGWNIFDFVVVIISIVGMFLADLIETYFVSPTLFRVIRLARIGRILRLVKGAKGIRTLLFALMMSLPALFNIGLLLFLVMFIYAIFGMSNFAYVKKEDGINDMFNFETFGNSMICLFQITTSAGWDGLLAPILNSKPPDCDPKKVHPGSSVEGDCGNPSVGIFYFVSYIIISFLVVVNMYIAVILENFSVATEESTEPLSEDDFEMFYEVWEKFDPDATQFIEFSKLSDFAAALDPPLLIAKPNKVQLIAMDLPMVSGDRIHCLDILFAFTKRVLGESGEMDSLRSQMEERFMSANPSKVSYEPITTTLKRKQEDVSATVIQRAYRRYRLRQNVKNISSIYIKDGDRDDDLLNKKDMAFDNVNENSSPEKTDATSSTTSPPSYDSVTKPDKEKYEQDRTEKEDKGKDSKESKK

As usually defined, the IC50 is the concentration at which inhibition is half-maximal. On to `COc1cc(-c2cc(F)cc(Cl)c2)c(Cl)cc1-n1c2c(ccc1=O)CN(S(=O)(=O)Nc1ccon1)CC2` [Example 53, P-1-(2,3′-dichloro-5′-fluoro-5-methoxy-4-biphenylyl)-N-3-isoxazolyl-2-oxo-1,5,7,8-tetrahydro-1,6-naphthyridine-6(2H)-sulfonamide], for which the IC50 at human Nav1.7 [1] came out at 5.2 nM; on human Nav1.7 [2], 0.7 nM.
For `COc1cc(-c2ccc(F)c(C)c2)c(F)cc1-n1c2c(ccc1=O)CN(S(=O)(=O)Nc1ncccn1)CC2` (racemic) [Example 29-(Rac), (Rac)-1-(2,4′-difluoro-5-methoxy-3′-methyl-4-biphenylyl)-2-oxo-N-2-pyrimidinyl-1,5,7,8-tetrahydro-1,6-naphthyridine-6(2H)-sulfonamide] the same measures were 1170 nM and 122 nM.
As for `COc1cc(-c2ccc(Cl)c(C)c2)c(F)cc1-n1c2c(ccc1=O)CN(S(=O)(=O)Nc1cc(C)ncn1)CC2` (racemic) [Example 40, (Rac)-1-(4′-chloro-2-fluoro-5-methoxy-3′-methyl-4-biphenylyl)-N-(6-methyl-4-pyrimidinyl)-2-oxo-1,5,7,8-tetrahydro-1,6-naphthyridine-6(2H)-sulfonamide], the IC50 on human Nav1.7 [1] amounted to 204 nM; on human Nav1.7 [2], 42.3 nM.
For `COc1cc(-c2cc(C)cc(OC(F)(F)F)c2)c(F)cc1-n1c2c(ccc1=O)CN(S(=O)(=O)Nc1cccnn1)CC2` [Example 78, P-1-(2-fluoro-5-methoxy-3′-methyl-5′-(trifluoromethoxy)-[1,1′-biphenyl]-4-yl)-2-oxo-N-(pyridazin-3-yl)-1,2,7,8-tetrahydro-1,6-naphthyridine-6(5H)-sulfonamide] the same measures were 44.5 nM and 5.3 nM.
Turning to `COc1cc(-c2cc(F)cc(Cl)c2)c(F)cc1-n1c2c(ccc1=O)CN(S(=O)(=O)Nc1cc(C)ncn1)CC2` (racemic) [4-(Rac), (Rac)-1-(3′-chloro-2,5′-difluoro-5-methoxy-4-biphenylyl)-N-(6-methyl-4-pyrimidinyl)-2-oxo-1,5,7,8-tetrahydro-1,6-naphthyridine-6(2H)-sulfonamide], the results for the IC50 at human Nav1.7 [1] and at human Nav1.7 [2] were 386 nM and 45.9 nM, respectively.
On to `COc1cc(-c2cc(F)cc(C(F)(F)F)c2)c(F)cc1-n1c2c(ccc1=O)CN(S(=O)(=O)Nc1cccnn1)CC2` [Example 41, P-1-(2,3′-difluoro-5-methoxy-5′-(trifluoromethyl)-4-biphenylyl)-2-oxo-N-3-pyridazinyl-1,5,7,8-tetrahydro-1,6-naphthyridine-6(2H)-sulfonamide], for which the half-inhibitory concentration (IC50) at human Nav1.7 [1] is 33 nM; at human Nav1.7 [2], 1.8 nM.
Turning to `COc1cc(-c2cccc(Cl)c2)c(F)cc1-n1c2c(ccc1=O)CN(S(=O)(=O)Nc1cccnn1)CC2` [Example 62, P-1-(3′-chloro-2-fluoro-5-methoxy-[1,1′-biphenyl]-4-yl)-2-oxo-N-(pyridazin-3-yl)-1,2,7,8-tetrahydro-1,6-naphthyridine-6(5H)-sulfonamide], the results for the 50% inhibitory concentration (IC50) at human Nav1.7 [1] and on human Nav1.7 [2] were 75.8 nM and 8.6 nM, respectively.
On the same counts, the results for `COc1cc(-c2cc(F)cc(F)c2)c(F)cc1-n1c2c(ccc1=O)[C@H](C)N(S(=O)(=O)Nc1ccon1)CC2` [Example 3-B-M, M-(5S)-N-3-isoxazolyl-5-methyl-2-oxo-1-(2,3′,5′-trifluoro-5-methoxy-4-biphenylyl)-1,5,7,8-tetrahydro-1,6-naphthyridine-6(2H)-sulfonamide] are more than 1000 nM and more than 30000 nM.
Turning to `COc1cc(-c2ccc(F)c(C)c2)c(F)cc1-n1c2c(ccc1=O)CN(S(=O)(=O)Nc1ncccn1)CC2` (single isomer, unassigned) [Example 29-P, P-1-(2,4′-difluoro-5-methoxy-3′-methyl-4-biphenylyl)-2-oxo-N-2-pyrimidinyl-1,5,7,8-tetrahydro-1,6-naphthyridine-6(2H)-sulfonamide], the IC50 on human Nav1.7 [1] was determined as 568 nM; on human Nav1.7 [2] it was 55.5 nM.
For the molecule `COc1cc(-c2ccc(F)c(C)c2)c(Cl)cc1-n1c2c(ccc1=O)CN(S(=O)(=O)Nc1cccnn1)CC2` (single isomer, unassigned) [Example 92-M, M-1-(2-chloro-4′-fluoro-5-methoxy-3′-methyl-[1,1′-biphenyl]-4-yl)-2-oxo-N-(pyridazin-3-yl)-1,2,7,8-tetrahydro-1,6-naphthyridine-6(5H)-sulfonamide], the IC50 at human Nav1.7 [1] was determined as 3010 nM; on human Nav1.7 [2], 282 nM.
As for `COc1cc(-c2ccc(C)c(F)c2)c(F)cc1-n1c2c(ccc1=O)CN(S(=O)(=O)Nc1ccon1)CC2` (single isomer, unassigned) [Example 21-M, M-1-(2,3′-difluoro-5-methoxy-4′-methyl-4-biphenylyl)-N-3-isoxazolyl-2-oxo-1,5,7,8-tetrahydro-1,6-naphthyridine-6(2H)-sulfonamide], the figures for the 50% inhibitory concentration (IC50) at human Nav1.7 [1] and on human Nav1.7 [2] were 4940 nM and 1550 nM, respectively.
In the case of `COc1cc(-c2cccc(C(F)(F)F)c2)c(Cl)cc1-n1c2c(ccc1=O)CN(S(=O)(=O)Nc1cccnn1)CC2` (single isomer, unassigned) [Example 91-M, M-1-(2-chloro-5-methoxy-3′-(trifluoromethyl)-[1,1′-biphenyl]-4-yl)-2-oxo-N-(pyridazin-3-yl)-1,2,7,8-tetrahydro-1,6-naphthyridine-6(5H)-sulfonamide], the IC50 on human Nav1.7 [1] came out at 681 nM; on human Nav1.7 [2] it was 154 nM.
Regarding `COc1cc(-c2cc(F)cc(Cl)c2)c(F)cc1-n1c2c(ccc1=O)CN(S(=O)(=O)Nc1ccon1)CC2` (single isomer, unassigned) [Example 18-M, M-1-(3′-chloro-2,5′-difluoro-5-methoxy-4-biphenylyl)-N-3-isoxazolyl-2-oxo-1,5,7,8-tetrahydro-1,6-naphthyridine-6(2H)-sulfonamide], the half-inhibitory concentration (IC50) on human Nav1.7 [1] is 3560 nM; on human Nav1.7 [2], 567 nM.
For the molecule `COc1cc(-c2ccc(F)c(C)c2)c(Cl)cc1-n1c2c(ccc1=O)CN(S(=O)(=O)Nc1cccnn1)CC2` (racemic) [Example 92-(Rac), (Rac)-1-(2-chloro-4′-fluoro-5-methoxy-3′-methyl-[1,1′-biphenyl]-4-yl)-2-oxo-N-(pyridazin-3-yl)-1,2,7,8-tetrahydro-1,6-naphthyridine-6(5H)-sulfonamide], the figures for the IC50 on human Nav1.7 [1] and at human Nav1.7 [2] were 63.5 nM and 23.6 nM, respectively.
For the molecule `COc1cc(-c2cc(F)cc(Cl)c2)ccc1-n1c2c(ccc1=O)CN(S(=O)(=O)Nc1cccnn1)CC2` (single isomer, unassigned) [Example 8-P, P-1-(3′-chloro-5′-fluoro-3-methoxy-4-biphenylyl)-2-oxo-N-3-pyridazinyl-1,5,7,8-tetrahydro-1,6-naphthyridine-6(2H)-sulfonamide], the IC50 on human Nav1.7 [1] is 241 nM; on human Nav1.7 [2], 25.9 nM.
Take `COc1cc(-c2cccc(Cl)c2OC)c(F)cc1-n1c2c(ccc1=O)CN(S(=O)(=O)Nc1cccnn1)CC2` [Example 65, P-1-(3′-chloro-2-fluoro-2′,5-dimethoxy-[1,1′-biphenyl]-4-yl)-2-oxo-N-(pyridazin-3-yl)-1,2,7,8-tetrahydro-1,6-naphthyridine-6(5H)-sulfonamide]: the half-maximal inhibitory concentration (IC50) at human Nav1.7 [1] amounted to 251 nM; on human Nav1.7 [2], 8.5 nM.
For the molecule `COc1cc(-c2ccc(F)c(C)c2)c(F)cc1-n1c2c(ccc1=O)CN(S(=O)(=O)Nc1cccnn1)CC2` [Example 73, P-1-(2,4′-difluoro-5-methoxy-3′-methyl-[1,1′-biphenyl]-4-yl)-2-oxo-N-(pyridazin-3-yl)-1,2,7,8-tetrahydro-1,6-naphthyridine-6(5H)-sulfonamide], the IC50 on human Nav1.7 [1] is 232 nM; on human Nav1.7 [2] it was 18 nM.
On the same counts, the results for `COc1cc(-c2cccc(OC(F)F)c2)c(F)cc1-n1c2c(ccc1=O)CN(S(=O)(=O)Nc1ccon1)CC2` (single isomer, unassigned) [Example 19-M, M-1-(3′-(difluoromethoxy)-2-fluoro-5-methoxy-4-biphenylyl)-N-3-isoxazolyl-2-oxo-1,5,7,8-tetrahydro-1,6-naphthyridine-6(2H)-sulfonamide] are 17100 nM and 1940 nM.
Turning to `COc1ccc(C(F)(F)F)cc1-c1cc(OC)c(-n2c3c(ccc2=O)CN(S(=O)(=O)Nc2cccnn2)CC3)cc1F` [Example 74, P-1-(2-fluoro-2′,5-dimethoxy-5′-(trifluoromethyl)-[1,1′-biphenyl]-4-yl)-2-oxo-N-(pyridazin-3-yl)-1,2,7,8-tetrahydro-1,6-naphthyridine-6(5H)-sulfonamide], the concentration for half-maximal inhibition (IC50) amounted to 29.4 nM at human Nav1.7 [1] and 7.7 nM at human Nav1.7 [2].
Take `COc1cc(-c2cc(F)cc(Cl)c2)c(F)cc1-n1c2c(ccc1=O)CN(S(=O)(=O)Nc1ccccn1)CC2` (single isomer, unassigned) [Example 11-M, M-1-(3′-chloro-2,5′-difluoro-5-methoxy-4-biphenylyl)-2-oxo-N-2-pyridinyl-1,5,7,8-tetrahydro-1,6-naphthyridine-6(2H)-sulfonamide]: the half-maximal inhibitory concentration (IC50) came out at 4500 nM at human Nav1.7 [1] and 849 nM on human Nav1.7 [2].
`COc1cc(-c2cc(C)cc(Cl)c2)c(F)cc1-n1c2c(ccc1=O)CN(S(=O)(=O)Nc1cccnn1)CC2` [Example 69, P-1-(3′-chloro-2-fluoro-5-methoxy-5′-methyl-[1,1′-biphenyl]-4-yl)-2-oxo-N-(pyridazin-3-yl)-1,2,7,8-tetrahydro-1,6-naphthyridine-6(5H)-sulfonamide]: the concentration for half-maximal inhibition (IC50) on human Nav1.7 [1] stood at 22.8 nM; at human Nav1.7 [2] it was 16.9 nM.

The values are drawn from patent US10472356B2, “Bicyclic ketone sulfonamide compounds” (AMGEN INC., priority 2015, dated 2019).
